In one experiment the test system is cleaved caspase-3. Nature of the experiment: Western blot of cleaved caspase-3 in H2O2-exposed SH-SY5Y cells. In kind it is cell-based, Human. The note with it: 250 μM H2O2, pretreatment with extract (1, 3, 10 µg/mL) or baicalein (1, 3, 10 µM). How it is done: (§1) Neuronal cells were pretreated with the extract (1, 3, and 10 µg/mL) or baicalein (1, 3, and 10 µM) for 30 min, followed by induction of oxidative stress with hydrogen peroxide (H2O2). […] NAC (100 µg/mL) was used for the standard substance. For the experiment, SH-SY5Y cells (1 × 10^5 cells/well) were seeded onto a 6-well plate and cultured for 2 days. […] After washing unabsorbed chemicals, the cells were exposed to 250 μM H2O2 for 5 min. Treated cells were lysed with an ice-cold lysis solution. The supernatant was obtained after centrifuging the lysate at 13,500 rpm for 10 min at 4 °C. The Bradford test was used to determine the total protein content. Proteins were separated on a polyvinylidene difluoride membrane using SDS-PAGE. After blocking with BlockAce, the membrane was probed with primary antibodies against BAX, cleaved caspase-3, pTau, and BACE1. Secondary antibodies coupled with horseradish peroxidase were used for detection, followed by enhanced chemiluminescence.
A general note: Immunoblotting shows a protein as a band on a membrane.

The next experiment deals with Bax. The experiment in a line: Western blot of Bax in H2O2-exposed SH-SY5Y cells. In kind it is cell-based, Human. The note with it: 250 μM H2O2, pretreatment with extract (1, 3, 10 µg/mL) or baicalein (1, 3, 10 µM). How it is done:
as §1

In a further experiment the test system is BACE1. Nature of the experiment: Western blot of BACE1 in H2O2-exposed SH-SY5Y cells. In kind it is cell-based, Human. The note with it: 250 μM H2O2, pretreatment with extract (1, 3, 10 µg/mL) or baicalein (1, 3, 10 µM). The method, then:
as §1

The nature of experiment [1]: DPPH radical scavenging method. Conditions: for IC50: read-out: IC50 DPPH, mean ± SD (n = 3). For orientation: DPPH is a stable violet radical that fades when it is reduced.
Method: After 30 min incubation period, the absorbance at 520 nm was measured using a microplate reader. The DPPH radical scavenging ability was calculated according to the following equation:Percentage inhibition = [(ADPPH − Asample)/(ADPPH − Acontrol)] × 100 where ADPPH, Asample, and Acontrol are the absorbance values of DPPH solution, sample, and control, respectively.
Experiment [2] relates to phosphorylated tau protein. The experiment in a line: Western blot of phosphorylated tau in H2O2-exposed SH-SY5Y cells. In kind it is cell-based, Human. Conditions: 250 μM H2O2, pretreatment with extract (1, 3, 10 µg/mL) or baicalein (1, 3, 10 µM). The method, then: as §1
For experiment [3], the target named is T1, Electric eel-type VI-S AChE (Electrophorus electricus, UniProt O42275).
T1 construct: purchased
T1 sequence (O42275 24-633): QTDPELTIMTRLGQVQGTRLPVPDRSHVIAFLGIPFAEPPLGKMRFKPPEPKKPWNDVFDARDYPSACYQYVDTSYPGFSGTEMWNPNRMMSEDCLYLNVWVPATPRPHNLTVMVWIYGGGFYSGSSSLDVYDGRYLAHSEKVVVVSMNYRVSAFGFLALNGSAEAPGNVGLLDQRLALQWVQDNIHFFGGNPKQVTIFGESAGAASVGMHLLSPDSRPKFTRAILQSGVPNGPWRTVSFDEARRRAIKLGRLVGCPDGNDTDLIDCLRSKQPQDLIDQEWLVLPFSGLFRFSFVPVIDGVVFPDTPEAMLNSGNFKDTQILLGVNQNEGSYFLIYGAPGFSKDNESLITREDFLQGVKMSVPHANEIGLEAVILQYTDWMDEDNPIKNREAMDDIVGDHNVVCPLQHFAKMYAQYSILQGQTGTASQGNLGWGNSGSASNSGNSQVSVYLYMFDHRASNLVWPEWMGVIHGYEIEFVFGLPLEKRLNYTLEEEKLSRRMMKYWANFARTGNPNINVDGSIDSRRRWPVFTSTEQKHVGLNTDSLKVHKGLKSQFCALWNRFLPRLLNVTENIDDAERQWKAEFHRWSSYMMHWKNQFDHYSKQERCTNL
Nature of the experiment: AChE inhibition, modified Ellman's method. Format: biochemical. The method, then:
The anti-acetylcholinesterase activity of the extract of O. indicum root and its three constituent compounds was evaluated using a modified Ellman’s method. A microplate-based assay was conducted in triplicate, comprising (i) 25 µL of 1 mM acetylthiocholine iodide, (ii) 50 µL of 0.1 M phosphate buffer (PBS), (iii) 25 µL of the sample, and (iv) 125 µL of 1 mM dithiobisnitrobenzoic acid. Electric eel-type VI-S AChE (0.2 Units/mL) was added. The control group lacked both the sample and enzyme. […] Tacrine served as a reference standard. Enzymatic activity and percent inhibition were assessed. The following equation was used to determine inhibitory activity:Percentage inhibition = [(AE − As)/(AE − AC)] × 100 where AE, AC, and As represent the enzymatic activities of the enzyme, control, and sample, respectively. The AChE inhibitory activity of the samples was expressed as the half-maximal inhibitory concentration (IC50).

The target in a further experiment is Aβ1–42 (Homo sapiens, UniProt P05067). The experiment in a line: Aβ1–42 aggregation inhibition, thioflavin-T (ThT) fluorescence assay.
Aβ1–42, sequence (P05067 672-713 limits assumed): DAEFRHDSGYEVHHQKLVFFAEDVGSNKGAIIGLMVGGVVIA

Method for Aβ1–42: The aggregation of Aβ1–42 was monitored using a thioflavin-T (ThT) fluorescence assay [58]. […] Following a 48 h incubation period, the mixtures were treated with 175 µL of 5 µM ThT solution prepared in a glycine/NaOH buffer at pH 8.5.

On to `O=c1cc(-c2ccccc2)oc2cc(O)c(O)c(O)c12` [Baicalein], for which the “expression of cleaved caspase-3” value in the experiment on cleaved caspase-3 is on record as “significantly downregulated”. Besides, the “expression of pro-apoptotic protein Bax” value in the experiment with Bax is listed as “significantly downregulated”. Also, the “BACE1 expression (H2O2-induced increase)” value with BACE1 is recorded as “effectively mitigated this increase”. Further, the half-maximal inhibitory concentration (IC50) – broadly, the concentration at which inhibition is half-maximal – worked out at 19.08 ± 0.17 µM in experiment [1] and 159 ± 1.15 µM in experiment [3]. In experiment [2], the “levels of phosphorylated tau protein” value is listed as “significantly reduced”.
`O=c1cc(-c2ccccc2)oc2cc(O)cc(O)c12` [Chrysin]: the IC50 in experiment [1] came out at 63.3 ± 0.89 µM; in experiment [3], 45.9 ± 1.32 µM; on Aβ1–42, 5.86 ± 0.16 µM.
On to `COc1c(O)cc2oc(-c3ccccc3)cc(=O)c2c1O` [Oroxylin A], for which the IC50 in experiment [1] is over 100 µM; in experiment [3], 86.9 ± 1.85 µM; against Aβ1–42 it was 8.19 ± 0.28 µM. The “DPPH radical scavenging activity” value in experiment [1] (up to 100 µg/mL) was “minimal DPPH radical scavenging activity”.
On to `Cc1c(C)c2c(c(C)c1O)CCC(C)(C(=O)O)O2` (centres unmarked) [Trolox, reference compound], for which, in experiment [1], the IC50 turned out to be 29.8 ± 1.59 µM.

Values taken from PMC11769049, “Phytomedicine Potential of Oroxylum indicum Root and Its Constituents: Targeting Alzheimer’s Disease” (Plants, 2025).
